{"source": "paper PMC4774911", "about": "“Biochemical Screening of Five Protein Kinases from Plasmodium falciparum against 14,000 Cell-Active Compounds” (PLoS ONE, 2016)", "experiment_in_all_cases": "biochemical", "design_in_all_cases": "endogenous in cells; host or cells: K562 cell extract; species or system K562 (extract); replicate k of n = 2 (each experiment ID is one independent experiment; two experiment IDs per compound)", "conditions_in_all_cases": "read-out: KDapp", "key": {"TAOK1": {"molecular_target": "TAOK1 (Homo sapiens, UniProt Q7L7X3)", "sequence (Q7L7X3 whole entry)": "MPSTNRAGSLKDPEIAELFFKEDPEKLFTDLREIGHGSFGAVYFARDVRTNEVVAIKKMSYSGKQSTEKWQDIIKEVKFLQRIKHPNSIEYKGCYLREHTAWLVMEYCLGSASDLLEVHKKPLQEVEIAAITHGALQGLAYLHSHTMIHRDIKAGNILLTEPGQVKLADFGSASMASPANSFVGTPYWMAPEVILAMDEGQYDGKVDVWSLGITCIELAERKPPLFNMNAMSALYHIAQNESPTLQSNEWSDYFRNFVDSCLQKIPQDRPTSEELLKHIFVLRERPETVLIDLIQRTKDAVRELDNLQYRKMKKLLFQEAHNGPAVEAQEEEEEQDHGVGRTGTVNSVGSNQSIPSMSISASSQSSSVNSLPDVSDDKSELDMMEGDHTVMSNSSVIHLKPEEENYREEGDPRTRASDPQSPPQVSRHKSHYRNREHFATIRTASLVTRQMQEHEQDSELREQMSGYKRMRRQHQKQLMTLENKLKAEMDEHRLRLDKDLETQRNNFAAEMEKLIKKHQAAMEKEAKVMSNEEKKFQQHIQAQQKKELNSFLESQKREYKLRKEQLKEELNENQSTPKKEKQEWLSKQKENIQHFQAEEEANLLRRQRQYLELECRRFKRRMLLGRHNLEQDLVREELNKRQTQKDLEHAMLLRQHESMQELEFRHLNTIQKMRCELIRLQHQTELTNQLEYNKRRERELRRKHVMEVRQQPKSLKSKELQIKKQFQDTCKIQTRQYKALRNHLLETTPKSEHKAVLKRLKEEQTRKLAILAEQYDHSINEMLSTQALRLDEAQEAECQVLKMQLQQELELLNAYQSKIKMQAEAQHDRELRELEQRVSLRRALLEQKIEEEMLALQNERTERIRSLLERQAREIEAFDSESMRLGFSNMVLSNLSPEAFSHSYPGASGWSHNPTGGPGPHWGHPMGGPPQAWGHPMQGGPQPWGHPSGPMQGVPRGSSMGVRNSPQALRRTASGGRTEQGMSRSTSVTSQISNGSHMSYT"}, "TAOK3": {"molecular_target": "T1, TAOK3 (Homo sapiens, UniProt Q9H2K8)", "T1 sequence (Q9H2K8 1-898)": "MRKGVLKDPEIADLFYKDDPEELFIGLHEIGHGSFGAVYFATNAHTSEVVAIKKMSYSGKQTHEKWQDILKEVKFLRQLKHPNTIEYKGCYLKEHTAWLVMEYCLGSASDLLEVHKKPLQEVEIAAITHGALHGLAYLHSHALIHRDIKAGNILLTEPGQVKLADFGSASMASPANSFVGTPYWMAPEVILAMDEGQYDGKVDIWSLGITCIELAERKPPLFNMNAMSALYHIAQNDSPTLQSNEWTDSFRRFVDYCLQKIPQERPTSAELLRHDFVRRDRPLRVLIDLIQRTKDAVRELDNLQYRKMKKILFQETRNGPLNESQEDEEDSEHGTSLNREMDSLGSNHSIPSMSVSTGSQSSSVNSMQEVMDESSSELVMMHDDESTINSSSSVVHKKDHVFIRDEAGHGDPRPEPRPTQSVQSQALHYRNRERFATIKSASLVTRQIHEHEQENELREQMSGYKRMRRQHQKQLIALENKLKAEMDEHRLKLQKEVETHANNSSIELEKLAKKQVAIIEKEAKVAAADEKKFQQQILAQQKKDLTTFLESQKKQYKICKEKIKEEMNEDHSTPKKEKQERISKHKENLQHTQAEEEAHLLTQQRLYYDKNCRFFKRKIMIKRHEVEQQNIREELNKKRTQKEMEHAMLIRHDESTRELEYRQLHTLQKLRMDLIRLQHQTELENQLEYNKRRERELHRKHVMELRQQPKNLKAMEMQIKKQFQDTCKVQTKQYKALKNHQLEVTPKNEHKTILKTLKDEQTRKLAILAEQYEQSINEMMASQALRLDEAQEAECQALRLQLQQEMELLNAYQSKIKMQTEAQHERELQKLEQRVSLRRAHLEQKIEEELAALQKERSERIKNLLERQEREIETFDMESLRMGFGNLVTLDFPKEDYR"}, "ULK3": {"molecular_target": "T2, ULK3 (Homo sapiens, UniProt Q6PHR2)", "T2 sequence (Q6PHR2 1-472)": "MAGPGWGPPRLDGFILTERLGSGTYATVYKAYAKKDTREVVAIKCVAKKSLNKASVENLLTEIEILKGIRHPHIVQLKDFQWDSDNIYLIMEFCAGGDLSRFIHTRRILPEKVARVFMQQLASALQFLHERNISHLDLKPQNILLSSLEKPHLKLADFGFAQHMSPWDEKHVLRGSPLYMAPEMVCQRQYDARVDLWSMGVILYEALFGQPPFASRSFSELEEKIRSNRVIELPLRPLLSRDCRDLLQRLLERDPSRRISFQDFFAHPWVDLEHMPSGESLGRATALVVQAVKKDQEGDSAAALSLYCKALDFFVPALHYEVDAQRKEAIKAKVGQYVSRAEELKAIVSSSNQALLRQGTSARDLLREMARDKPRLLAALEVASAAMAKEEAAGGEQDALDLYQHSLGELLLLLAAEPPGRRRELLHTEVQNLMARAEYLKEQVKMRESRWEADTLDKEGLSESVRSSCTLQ"}, "MAP4K2": {"molecular_target": "T3, MAP4K2 (Homo sapiens, UniProt Q12851)", "T3 sequence (Q12851 1-820)": "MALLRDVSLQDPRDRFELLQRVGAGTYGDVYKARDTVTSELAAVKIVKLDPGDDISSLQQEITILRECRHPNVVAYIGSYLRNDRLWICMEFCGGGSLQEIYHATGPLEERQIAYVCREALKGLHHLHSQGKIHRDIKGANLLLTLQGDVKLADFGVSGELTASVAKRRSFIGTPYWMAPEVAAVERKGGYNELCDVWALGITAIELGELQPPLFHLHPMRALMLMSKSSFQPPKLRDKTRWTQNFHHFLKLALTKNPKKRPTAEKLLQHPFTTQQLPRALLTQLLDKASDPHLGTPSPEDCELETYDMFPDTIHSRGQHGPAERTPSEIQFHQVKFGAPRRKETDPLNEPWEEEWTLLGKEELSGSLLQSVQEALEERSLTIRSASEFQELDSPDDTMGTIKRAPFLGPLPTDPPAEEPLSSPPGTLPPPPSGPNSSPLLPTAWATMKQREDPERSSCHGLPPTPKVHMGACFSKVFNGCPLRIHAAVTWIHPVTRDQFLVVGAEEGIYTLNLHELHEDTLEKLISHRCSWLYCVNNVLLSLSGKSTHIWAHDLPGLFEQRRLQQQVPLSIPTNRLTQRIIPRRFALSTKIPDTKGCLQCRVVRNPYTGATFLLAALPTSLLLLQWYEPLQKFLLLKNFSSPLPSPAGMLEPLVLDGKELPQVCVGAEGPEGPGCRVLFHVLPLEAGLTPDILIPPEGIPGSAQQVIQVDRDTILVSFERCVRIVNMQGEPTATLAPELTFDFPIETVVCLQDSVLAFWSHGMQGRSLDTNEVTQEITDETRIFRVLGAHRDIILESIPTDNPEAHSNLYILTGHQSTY"}, "CAMK2D": {"molecular_target": "CAMK2D (Homo sapiens, UniProt Q13557)", "sequence (Q13557 whole entry)": "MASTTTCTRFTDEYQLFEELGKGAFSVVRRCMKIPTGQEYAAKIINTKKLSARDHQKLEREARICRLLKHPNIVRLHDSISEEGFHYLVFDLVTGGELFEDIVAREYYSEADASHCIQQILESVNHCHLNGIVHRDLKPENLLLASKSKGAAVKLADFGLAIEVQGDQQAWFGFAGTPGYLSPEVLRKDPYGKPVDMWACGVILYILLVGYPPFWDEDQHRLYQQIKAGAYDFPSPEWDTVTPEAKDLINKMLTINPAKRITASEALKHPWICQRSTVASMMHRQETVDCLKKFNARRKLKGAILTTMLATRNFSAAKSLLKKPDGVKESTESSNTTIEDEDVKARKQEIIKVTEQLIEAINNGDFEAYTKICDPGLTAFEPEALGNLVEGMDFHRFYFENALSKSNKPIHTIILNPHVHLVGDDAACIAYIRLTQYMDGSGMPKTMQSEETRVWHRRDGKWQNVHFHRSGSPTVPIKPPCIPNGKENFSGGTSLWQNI"}}, "note": "Values joined by “and” are separate entries in the source; they are usually repeats but may differ in a detail not shown here. Equal values may be shown once."}
{"compound": "CN(C)CC(O)COc1ccc(Nc2ncc([N+](=O)[O-])c(Nc3ccccc3O)n2)cc1.O=C(O)C(F)(F)F", "note": "(centres unmarked) [TCMDC-141399]", "values": [{"measurement": "Kd", "setting": "TAOK1", "result": 4300, "unit": "nM"}]}
{"compound": "Cl.NCC1(c2nc(-c3ccc(Cl)c(O)c3)c(-c3ccncc3)[nH]2)CCCCC1", "note": "[TCMDC-141154]", "values": [{"measurement": "Kd", "setting": "TAOK3", "result": "1190 nM and 603 nM"}]}
{"compound": "CN1CCN(c2ccc(Nc3ncc(C#N)c(Nc4ccccc4C(N)=O)n3)cc2)CC1.Cl", "note": "[TCMDC-134116]", "values": [{"measurement": "Kd", "setting": "ULK3", "result": "16.4 nM and 25.9 nM"}, {"measurement": "Kd", "setting": "MAP4K2", "result": 648, "unit": "nM"}, {"measurement": "Kd", "setting": "CAMK2D", "result": "323 nM and 163 nM"}]}
